Test results taken from patent US4031259A, “Process of preparing nutritive sweetening compositions” (General Foods Corporation, priority 1975, dated 1977).
Where a SMILES comes first, the peptide text is derived from it.

Legend:
[1] = as much as; cited from earlier work
[2] = Rate of solubility: time to complete dissolution in room temperature distilled water (10 ml, pH 5.7, constant stirring); Solubility Factor derived from it; format: physicochemical; details: APM alone (control); for Rate of Solubility (time until complete dissolution): in 10 ml room temperature distilled water, pH 5.7, magnetic stirrer, B3: incomplete dissolution after this time
Procedure: The following represents a broad ratio of systems tested in order to evaluate the effect protein hydrolysates have on the rate of solubility of APM.
All systems were prepared by dissolving the ingredients in water and freeze-drying. Evaluations were made in room temperature distilled water (10 ml) having a pH of 5.7 with constant stirring by a magnetic stirrer. The time was clocked from the instant the powder hit the water until complete dissolution.
Samples A1 - A4 consisted of 1 g. each in 10 ml; samples B1 - B4 (controls) consisted of the amount indicated, also in 10 ml., the total amount of APM in the controls being equivalent to the respective test samples (A1 - A4). Where applicable, the ratio expressed is of APM to soy isolate respectively.
A convenient way of expressing the change in the solubility rate of a given amount of sweetener after combining with protein hydrolysate and dried is called the "Solubility Factor."
This is expressed as follows: [formula] the higher the SF value, the more appreciable the improvement in solubility.

SMILES | Rate of Solubility (time until complete dissolution) [2] [min] | other results
COC(=O)[C@H](Cc1ccccc1)NC(=O)[C@@H](N)CC(=O)O [APM, L-aspartyl-L-phenylalanine methyl ester] (H-Asp-Phe-OMe) | – | sweetness relative to sucrose [1]: ≤ 200 times as sweet as sucrose
COC(=O)[C@H](Cc1ccccc1)NC(=O)[C@@H](N)CC(=O)O [Sample B1, L-aspartyl-L-phenylalanine methyl ester] (H-Asp-Phe-OMe) | 7 | –
COC(=O)[C@H](Cc1ccccc1)NC(=O)[C@@H](N)CC(=O)O [Sample B2, L-aspartyl-L-phenylalanine methyl ester] (H-Asp-Phe-OMe) | 11 | –
COC(=O)[C@H](Cc1ccccc1)NC(=O)[C@@H](N)CC(=O)O [Sample B3, L-aspartyl-L-phenylalanine methyl ester] (H-Asp-Phe-OMe) | > 50 | –
COC(=O)[C@H](Cc1ccccc1)NC(=O)[C@@H](N)CC(=O)O [Sample B4, L-aspartyl-L-phenylalanine methyl ester] (H-Asp-Phe-OMe) | – | Rate of Solubility (incomplete dissolution after) ([2]; 200 mgs. in 10 ml room temperature distilled water, pH 5.7): > 1 h
